Read-outs that look alike come from different tables or passages of the source.
What was measured:
[1] = physchem; assay type: physicochemical
Experimental: 1 Method Description for Determination of the logP values and Mass Detection
Eluents for determination in the acidic range (pH 3.4): • Eluent A: acetonitrile+1 ml formic acid/l.
The λmax values were determined in the maxima of the chromatographic signals using the UV spectra from 200 nm to 400 nm. The mass was detected (M^+, m/z) by means of an Agilent MSD mass spectrometer.

[2] = tested on: green peach aphid (Myzus persicae); experiment: Myzus persicae test (spray treatment); assay type: in vivo; conditions: foliar, 144 h, read-out: efficacy in %
Experimental: Myzus persicae Test (Spray Treatment)
• Solvent: 78 parts by weight of acetone • 1.5 parts by weight of dimethylformamide • Emulsifier: 0.5 part by weight of alkylaryl polyglycol ether
To prepare an appropriate active ingredient preparation, 1 part by weight of active ingredient is mixed with the stated amounts of solvent and emulsifier, and the concentrate is diluted with emulsifier-containing water to the desired concentration. Discs of Chinese cabbage (Brassica pekinensis) infested by all stages of the green peach aphid (Myzus persicae) are sprayed with an active ingredient preparation of the desired concentration.
After 6 days, the efficacy in % is determined. 100% means that all of the aphids have been killed; 0% means that none of the aphids have been killed.

[3] = reverse-phase HPLC column (C 18), pH 3.4, HPLC-MS value printed in the preparation example text, acidic range pH 3.4, read-out: logP (HCOOH)
[4] = application rate 500 g/ha, Chinese cabbage leaf discs sprayed, after 6 days, 100% = all aphids killed
[5] = reverse-phase HPLC column (C 18), pH 3.4, HPLC, reverse-phase C 18, acidic range pH 3.4, 55° C., table of compounds, read-out: logP (HCO2H)

Row | Compound | chromatographic logP [1, 3] | pest or weed control at 500 g/ha [2, 4] [%] | chromatographic logP [1, 5] | further results
1 | O=C(O)C1CN=C(c2cccnc2)S1 (racemic) [(R,S)-4,5-Dihydro-2-(3-pyridinyl)-1,3-thiazole-5-carboxylic acid] |  |  |  | chromatographic logP ([1]; pH 3.4, HPLC-MS value printed in the preparation example text, acidic range pH 3.4, read-out: logP (HCOOH)): 0.75
2 | O=C(O)C1CN=C(c2cncnc2)S1 (racemic) [(R,S)-4,5-Dihydro-2-(5-pyrimidinyl)-1,3-thiazole-5-carboxylic acid] | 0.3 |  |  | 
3 | CN(C)C(=O)C1CN=C(c2cccnc2)S1 (racemic) [Compound 41, (R,S)-4,5-Dihydro-N,N-dimethyl-2-(3-pyridinyl)-1,3-thiazole-5-carboxamide] |  | 100 |  | 
4 | O=C(NCc1ncccn1)C1CN=C(c2cncnc2)S1 (racemic) [Compound 44, (R,S)-4,5-Dihydro-N-(pyrimidin-2-ylmethyl)-2-(5-pyrimidinyl)-1,3-thiazole-5-carboxamide] | 0.9 | 80 | 0.9 | 
5 | O=C(O)c1cn(-c2cccnc2)nn1 [1-(Pyridin-3-yl)-1H-1,2,3-triazole-4-carboxylic acid] | -0.03 |  |  | 
6 | O=C(O)c1cnc(-c2cccnc2)o1 [2-(Pyridin-3-yl)-1,3-oxazole-5-carboxylic acid] | -0.06 |  |  | 
7 | O=C(O)c1csc(-c2cccnc2)n1 [2-(Pyridin-3-yl)-1,3-thiazole-4-carboxylic acid] | 0.35 |  |  | 
8 | O=C(O)c1cc(-c2ccc(Cl)nc2)ns1 [3-(6-Chloropyridin-3-yl)-1,2-thiazole-5-carboxylic acid] | 1.56 |  |  | 
9 | CC(F)(F)CNC(=O)c1cc(-c2ccc(Cl)nc2)ns1 [3-(6-Chloropyridin-3-yl)-N-(2,2-difluoropropyl)-1,2-thiazole-5-carboxamide] | 2.45 |  |  | 
10 | Cc1cc(-c2cccnc2)sc1C(=O)O [3-Methyl-5-(pyridin-3-yl)thiophene-2-carboxylic acid] | 1.96 |  |  | 
11 | Cc1nc(-c2cccnc2)oc1C(=O)O [4-Methyl-2-(pyridin-3-yl)-1,3-oxazole-5-carboxylic acid] | 0.56 |  |  | 
12 | O=C(O)c1coc(-c2cccnc2)c1 [5-(Pyridin-3-yl)furan-3-carboxylic acid] | 0.07 |  |  | 
13 | O=C(NCC(F)(F)F)n1cnc(-c2cccnc2)c1 [Compound 1, 4-(Pyridin-3-yl)-N-(2,2,2-trifluoroethyl)-1H-imidazole-1-carboxamide] | 0.65 | 100 | 0.65 | 
14 | CN(C)C(=O)c1cc(-c2cccnc2)no1 [Compound 2, N,N-Dimethyl-3-(pyridin-3-yl)-1,2-oxazole-5-carboxamide] | 0.78 | 100 | 0.78 | 
15 | O=C(NCc1ncccn1)c1cc(-c2cccnc2)no1 [Compound 3] |  | 100 | 0.62 | 
16 | Cc1nc(-c2cccnc2)oc1C(=O)NCC(F)(F)F [Compound 4, 4-Methyl-2-(pyridin-3-yl)-N-(2,2,2-trifluoroethyl)-1,3-oxazole-5-carboxamide] | 1.46 |  | 1.46 | 
17 | Cc1cc(-c2cccnc2)sc1C(=O)NCC(F)(F)F [Compound 5, 3-Methyl-5-(pyridin-3-yl)-N-(2,2,2-trifluoroethyl)thiophene-2-carboxamide] | 1.62 |  | 1.62 | 
18 | CCN(CC)C(=O)c1ccc(-c2cccnc2)o1 [Compound 6] |  | 100 | 1.23 | 
19 | CN(C)C(=O)c1ccc(-c2cccnc2)o1 [Compound 7] |  | 100 | 0.51 | 
20 | CC(NC(=O)c1ccc(-c2cccnc2)o1)C1CC1 (centres unmarked) [Compound 8] |  | 80 | 1.36 | 
21 | O=C(c1ccc(-c2cccnc2)o1)N1CCCC1 [Compound 10] |  |  | 1.06 | 
22 | CCN(C)C(=O)c1ccc(-c2cccnc2)o1 [Compound 11] |  | 100 | 1 | 
23 | O=C(NCC(F)(F)F)c1coc(-c2cccnc2)c1 [Compound 12, 5-(Pyridin-3-yl)-N-(2,2,2-trifluoroethyl)furan-3-carboxamide] | 1.13 | 90 | 1.13 | 
24 | N#CCNC(=O)c1csc(-c2cccnc2)n1 [Compound 14] |  | 80 | 0.8 | 
25 | O=C(NCC1CCCCC1)c1ccc(-c2cccnc2)o1 [Compound 15] |  |  | 2.02 | 
26 | CN(CC#N)C(=O)c1ccc(-c2cccnc2)o1 [Compound 16] |  | 90 | 0.72 | 

Row | Compound | chromatographic logP [1, 3] | pest or weed control at 500 g/ha [2, 4] [%] | chromatographic logP [1, 5] | further results
27 | O=C(NCc1cccs1)c1ccc(-c2cccnc2)o1 [Compound 17] |  | 100 | 1.46 | 
28 | O=C(NCC=CCl)c1ccc(-c2cccnc2)o1 [Compound 18] |  | 90 | 1.27 | logP (HCO2H) ([1]; HPLC, reverse-phase C 18, acidic range pH 3.4, 55° C., table of compounds): 1.33
29 | C=C(Cl)CNC(=O)c1ccc(-c2cccnc2)o1 [Compound 19] |  | 100 | 1.28 | 
30 | C#CCNC(=O)c1ccc(-c2cccnc2)o1 [Compound 22] |  | 100 | 0.72 | 
31 | CCN(CC)C(=O)c1oc(-c2cccnc2)cc1C [Compound 24] |  | 90 | 1.58 | 
32 | CN(C)C(=O)c1cnc(-c2cccnc2)o1 [Compound 25, N,N-Dimethyl-2-(pyridin-3-yl)-1,3-oxazole-5-carboxamide] | 1.43 | 90 | 1.43 | 
33 | O=C(NCC(F)(F)Br)c1ccc(-c2cccnc2)o1 [Compound 26] |  |  | 1.49 | 
34 | NC(=O)c1csc(-c2cccnc2)n1 [Compound 28] |  | 100 |  | 
35 | O=C(NCC1CC1)c1ccc(-c2cccnc2)o1 [Compound 30] |  | 100 | 1.39 | 
36 | CNC(=O)c1ccc(-c2cccnc2)o1 [Compound 31, N-Methyl-5-(pyridin-3-yl)furan-2-carboxamide] | 0.42 |  | 0.42 | pest or weed control at 500 g/ha ([2]; in Brassica rapa): 100%
37 | CCCNC(=O)c1ccc(-c2cccnc2)o1 [Compound 32] |  | 100 | 0.83 | 
38 | CSCCNC(=O)c1nnc(-c2cccnc2)o1 [Compound 34, N-(2-Methylmercaptoethyl)-5-(pyridin-3-yl)-1,3,4-oxazole-2-carboxamide] | 1.13 |  | 1.13 | 
39 | O=C(NCC(F)(F)F)c1cc(-c2cccnc2)on1 [Compound 39, 5-(Pyridin-3-yl)-N-(2,2,2-trifluoroethyl)-1,2-oxazole-3-carboxamide] | 1.51 |  | 1.51 | 
40 | O=C(NCC(F)(F)F)c1cc(-c2cccnc2)no1 [Compound 40] |  |  | 1.33 | 
41 | O=C(NCC(F)(F)F)C1CN=C(c2cccnc2)S1 (centres unmarked) [Compound 42] |  |  |  | chromatographic logP ([1]; pH 3.4, logP (HCO2H)): 0.54
42 | CN(C)C(=O)C1CN=C(c2cncnc2)S1 (centres unmarked) [Compound 46] |  |  | 0.99 | 
43 | Cc1nc(C(=O)NCC(F)(F)F)sc1-c1cccnc1 [Compound 47, 4-Methyl-5-(3-pyridyl)-N-(2,2,2-trifluoroethyl)-1,3-thiazole-2-carboxamide] | 1.74 |  | 1.74 | 
44 | O=C(NCC(F)(F)F)n1cc(-c2cccnc2)cn1 [Compound 48] | 0.95 |  |  | 
45 | O=C(NCC(F)(F)F)c1nnc(-c2cccnc2)o1 [Compound 49, 5-(Pyridin-3-yl)-N-(2,2,2-trifluoroethyl)-1,3,4-oxadiazole-2-carboxamide] | 1.21 |  | 1.21 | 
46 | Cc1c(C(=O)NCC(F)(F)F)ncn1-c1cccnc1 [Compound 50, 5-Methyl-1-(pyridin-3-yl)-N-(2,2,2-trifluoroethyl)-1H-imidazole-4-carboxamide] | 1.28 |  | 1.28 | 
47 | CCOC(=O)c1cn(-c2cccnc2)nn1 [Ethyl 1-(pyridin-3-yl)-1H-1,2,3-triazole-4-carboxylate] | 1.15 |  |  | 
48 | CCOC(=O)c1cc(-c2ccc(Cl)nc2)ns1 [Ethyl 3-(6-chloropyridin-3-yl)-1,2-thiazole-5-carboxylate] | 3.33 |  |  | 
49 | CCOC(=O)c1nc(C)c(-c2cccnc2)s1 [Ethyl 4-methyl-5-(3-pyridinyl)-1,3-thiazole-2-carboxylate] | 0.45 |  |  | 
50 | CCOC(=O)c1nnc(-c2cccnc2)o1 [Ethyl 5-(pyridin-3-yl)-1,3,4-oxadiazole-2-carboxylate] | 1.21 |  |  | 
51 | CCOC(=O)c1ncn(-c2cccnc2)c1C [Ethyl 5-methyl-1-(pyridin-3-yl)-1H-imidazole-4-carboxylate] | 1.03 |  |  | 
52 | COC(=O)c1ccn(-c2cccnc2)c1 [Methyl 1-(pyridin-3-yl)pyrrole-3-carboxylate] | 1.26 |  |  | 
